The values that follow come from US10344025B2, “GLS1 inhibitors for treating disease” (Board of Regents, The University of Texas System, priority 2014, dated 2019).

Each structure is given as a SMILES string.

The subject of one assay is A549 cells. Description: Proliferation Assay (A549 viability, Cell Titer Fluor, 72 hours). The class given is cell-based. As to conditions: Homo sapiens, A549, 72 h. Put shortly:
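A549 cells seeded at 1000 cells/well, rested 24 h, then exposed to compound in 0.5% DMSO for 72 h at 37 °C. Viability read by Cell Titer Fluor fluorescence; IC50 from four-parameter logistic fit.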

The target of assay [1] is purified recombinant human GAC (GLS1) (Homo sapiens (Human), UniProt O94925). Description: GLS1 Enzymatic Activity Assay (dual-coupled enzymatic assay, resorufin/Amplex UltraRed readout).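 Also: glutamate from GAC coupled via glutamate oxidase and peroxidase to resorufin, read as fluorescence (ex 530, em 590 nm) kinetically or at 20 min, four-parameter logistic IC50 fit.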 The class given is biochemical.
Chain of purified recombinant human GAC (GLS1) (O94925 other isoform, or with tags, fused parts or gaps): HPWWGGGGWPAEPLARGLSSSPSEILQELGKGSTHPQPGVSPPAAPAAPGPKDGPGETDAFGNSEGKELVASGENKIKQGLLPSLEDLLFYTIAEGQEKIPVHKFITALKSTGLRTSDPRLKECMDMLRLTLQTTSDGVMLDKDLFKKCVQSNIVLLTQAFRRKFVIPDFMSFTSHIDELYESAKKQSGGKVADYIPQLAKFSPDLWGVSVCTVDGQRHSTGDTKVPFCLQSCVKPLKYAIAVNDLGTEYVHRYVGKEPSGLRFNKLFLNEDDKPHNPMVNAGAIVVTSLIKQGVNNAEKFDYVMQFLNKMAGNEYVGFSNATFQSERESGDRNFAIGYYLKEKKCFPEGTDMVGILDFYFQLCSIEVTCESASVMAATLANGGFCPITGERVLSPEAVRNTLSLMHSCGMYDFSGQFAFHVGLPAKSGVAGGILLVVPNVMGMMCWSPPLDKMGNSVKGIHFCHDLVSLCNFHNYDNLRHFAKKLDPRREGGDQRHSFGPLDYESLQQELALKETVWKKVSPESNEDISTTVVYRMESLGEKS

The EC50 is the concentration giving half of the maximal effect. The low end stands for greater potency, the high end for weaker potency. In general, IC50 refers to the concentration at which inhibition is half-maximal. For `O=C(NCc1cncc(C(F)(F)F)c1)c1cn(CCCCn2cc(C(=O)NCC3COC3)nn2)nn1` [Example 91, N-(oxetan-3-ylmethyl)-1-{4-[4-({[5-(trifluoromethyl)pyridin-3-yl]methyl}carbamoyl)-1H-1,2,3-triazol-1-yl]butyl}-1H-1,2,3-triazole-4-carboxamide], the concentration giving a half-maximal response (EC50) in the assay on A549 cells was above 5000 nM. Besides, the IC50 in assay [1] was in the range of 500 to 5000 nM.

Regarding `O=C(NCc1cncc(C(F)(F)F)c1)c1cn(CCCCn2cc(C(=O)NCC3CCCO3)nn2)nn1` (stereo not shown) [Example 92, N-(oxolan-2-ylmethyl)-1-{4-[4-({[5-(trifluoromethyl)pyridin-3-yl]methyl}carbamoyl)-1H-1,2,3-triazol-1-yl]butyl}-1H-1,2,3-triazole-4-carboxamide], the EC50 in the assay on A549 cells was 500 to 5000 nM. Besides, the concentration for half-maximal inhibition (IC50) in assay [1] fell in the range of 500 to 5000 nM.

Take `O=C(NCc1cncc(C(F)(F)F)c1)c1cn(CCCCn2cc(C(=O)NCC3CCC3)nn2)nn1` [Example 93, N-(cyclobutylmethyl)-1-{4-[4-({[5-(trifluoromethyl)pyridin-3-yl]methyl}carbamoyl)-1H-1,2,3-triazol-1-yl]butyl}-1H-1,2,3-triazole-4-carboxamide]: in the assay on A549 cells, the EC50 fell in the range of 500 to 5000 nM. Moreover, the 50% inhibitory concentration (IC50) in assay [1] was in the range of 100 to 500 nM.

With `O=C(NCc1cccc(OC(F)(F)F)c1)c1cn(CCCCn2cc(C(=O)NCC3CCOCC3)nn2)nn1` [Example 94, N-(oxan-4-ylmethyl)-1-{4-[4-({[3-(trifluoromethoxy)phenyl]methyl}carbamoyl)-1H-1,2,3-triazol-1-yl]butyl}-1H-1,2,3-triazole-4-carboxamide], the EC50 in the assay with A549 cells was 100 to 500 nM. The IC50 in assay [1] was 100 to 500 nM.

`CNC(=O)c1cn(CCCCn2cc(C(=O)NCc3cccc(OC(F)(F)F)c3)nn2)nn1` [Example 95, N-methyl-1-{4-[4-({[3-(trifluoromethoxy)phenyl]methyl}carbamoyl)-1H-1,2,3-triazol-1-yl]butyl}-1H-1,2,3-triazole-4-carboxamide]: the EC50 with A549 cells fell in the range of 100 to 500 nM. The concentration for half-maximal inhibition (IC50) in assay [1] was 100 to 500 nM.

`O=C(NCc1ccccc1)c1cn(CCCCn2cc(C(=O)NCc3cc(C(F)(F)F)ccn3)nn2)nn1` [Example 96, 1-{4-[4-(benzylcarbamoyl)-1H-1,2,3-triazol-1-yl]butyl}-N-{[4-(trifluoromethyl)pyridin-2-yl]methyl}-1H-1,2,3-triazole-4-carboxamide]: the half-maximal effective concentration (EC50) with A549 cells was in the range of 100 to 500 nM. Also, in assay [1], the IC50 is 100 to 500 nM.

`O=C(NCc1cccc(C(F)(F)F)c1)c1cn(CCCCn2cc(C(=O)NCc3cc(C(F)(F)F)ccn3)nn2)nn1` [Example 97, 1-{4-[4-({[3-(trifluoromethyl)phenyl]methyl}carbamoyl)-1H-1,2,3-triazol-1-yl]butyl}-N-{[4-(trifluoromethyl)pyridin-2-yl]methyl}-1H-1,2,3-triazole-4-carboxamide] came in with a concentration for a half-maximal effect (EC50) with A549 cells below 100 nM. In addition, the IC50 in assay [1] was below 100 nM.

In the assay on A549 cells, `C[C@@H](NC(=O)c1cn(CCCCn2cc(C(=O)NCc3cc(C(F)(F)F)ccn3)nn2)nn1)c1ccccc1` [Example 98, 1-[4-(4-{[(1R)-1-phenylethyl]carbamoyl}-1H-1,2,3-triazol-1-yl)butyl]-N-{[4-(trifluoromethyl)pyridin-2-yl]methyl}-1H-1,2,3-triazole-4-carboxamide] showed an EC50 of 500 to 5000 nM. In assay [1], the IC50 lay in the range of 500 to 5000 nM.

For the molecule `C[C@H](NC(=O)c1cn(CCCCn2cc(C(=O)NCc3cc(C(F)(F)F)ccn3)nn2)nn1)c1ccccc1` [Example 99, 1-[4-(4-{[(1S)-1-phenylethyl]carbamoyl}-1H-1,2,3-triazol-1-yl)butyl]-N-{[4-(trifluoromethyl)pyridin-2-yl]methyl}-1H-1,2,3-triazole-4-carboxamide], the 50% effective concentration (EC50) in the assay on A549 cells was 500 to 5000 nM. Besides, the half-inhibitory concentration (IC50) in assay [1] fell in the range of 500 to 5000 nM.

As for `O=C(NCc1cc(C(F)(F)F)ccn1)c1cn(CCCCn2cc(C(=O)N[C@@H](CO)c3ccccc3)nn2)nn1` [Example 100, 1-[4-(4-{[(1R)-2-hydroxy-1-phenylethyl]carbamoyl}-1H-1,2,3-triazol-1-yl)butyl]-N-{[4-(trifluoromethyl)pyridin-2-yl]methyl}-1H-1,2,3-triazole-4-carboxamide], the EC50 in the assay on A549 cells was above 5000 nM. The half-inhibitory concentration (IC50) in assay [1] was 500 to 5000 nM.

With `O=C(NCc1cc(C(F)(F)F)ccn1)c1cn(CCCCn2cc(C(=O)N[C@H](CO)c3ccccc3)nn2)nn1` [Example 101, 1-[4-(4-{[(1S)-2-hydroxy-1-phenylethyl]carbamoyl}-1H-1,2,3-triazol-1-yl)butyl]-N-{[4-(trifluoromethyl)pyridin-2-yl]methyl}-1H-1,2,3-triazole-4-carboxamide], the concentration giving a half-maximal response (EC50) in the assay on A549 cells was in the range of 500 to 5000 nM. Further, the half-inhibitory concentration (IC50) in assay [1] is 500 to 5000 nM.

`O=C(NCc1cc(C(F)(F)F)ccn1)c1cn(CCCCn2cc(C(=O)NC[C@H]3CC4CCC3O4)nn2)nn1` (stereo partly drawn) [Example 102, 1-[4-(4-{[(2R)-7-oxabicyclo[2.2.1]heptan-2-ylmethyl]carbamoyl}-1H-1,2,3-triazol-1-yl)butyl]-N-{[4-(trifluoromethyl)pyridin-2-yl]methyl}-1H-1,2,3-triazole-4-carboxamide] returned a concentration for a half-maximal effect (EC50) with A549 cells of 500 to 5000 nM. In addition, the IC50 in assay [1] lay within 500 to 5000 nM.

Turning to `O=C(NCc1cc(C(F)(F)F)ccn1)c1cn(CCCCn2cc(C(=O)NC[C@@H]3CC4CCC3O4)nn2)nn1` (stereo partly drawn) [Example 103, 1-[4-(4-{[(2S)-7-oxabicyclo[2.2.1]heptan-2-ylmethyl]carbamoyl}-1H-1,2,3-triazol-1-yl)butyl]-N-{[4-(trifluoromethyl)pyridin-2-yl]methyl}-1H-1,2,3-triazole-4-carboxamide], the 50% effective concentration (EC50) in the assay with A549 cells was 500 to 5000 nM. The IC50 in assay [1] was in the range of 100 to 500 nM.

`O=C(NCc1cc(C(F)(F)F)ccn1)c1cn(CCCCn2cc(C(=O)NC3CCCC3)nn2)nn1` [Example 104, 1-{4-[4-(cyclopentylcarbamoyl)-1H-1,2,3-triazol-1-yl]butyl}-N-{[4-(trifluoromethyl)pyridin-2-yl]methyl}-1H-1,2,3-triazole-4-carboxamide]: the EC50 in the assay on A549 cells is 500 to 5000 nM. For the same molecule, the IC50 in assay [1] was 500 to 5000 nM.

`O=C(NCc1cccc(C2CC2)c1)c1cn(CCCCn2cc(C(=O)NCc3cc(C(F)(F)F)ccn3)nn2)nn1` [Example 105, 1-[4-(4-{[(3-cyclopropylphenyl)methyl]carbamoyl}-1H-1,2,3-triazol-1-yl)butyl]-N-{[4-(trifluoromethyl)pyridin-2-yl]methyl}-1H-1,2,3-triazole-4-carboxamide] registered an EC50 in the assay with A549 cells below 100 nM. Also, in assay [1], the IC50 is below 100 nM.

In the assay on A549 cells, `O=C(NCc1cccc(OC(F)(F)F)c1)c1cn(CCCCn2cc(C(=O)NCc3cc(C4CC4)ccn3)nn2)nn1` [Example 106, N-[(4-cyclopropylpyridin-2-yl)methyl]-1-{4-[4-({[3-(trifluoromethoxy)phenyl]methyl}carbamoyl)-1H-1,2,3-triazol-1-yl]butyl}-1H-1,2,3-triazole-4-carboxamide] registered an EC50 below 100 nM. Besides, the IC50 in assay [1] is below 100 nM.

The molecule `O=C(NCc1cc(C(F)(F)F)ccn1)c1cn(CCCCn2cc(C(=O)NCc3cc(F)ccc3Cl)nn2)nn1` [Example 107, 1-[4-(4-{[(2-chloro-5-fluorophenyl)methyl]carbamoyl}-1H-1,2,3-triazol-1-yl)butyl]-N-{[4-(trifluoromethyl)pyridin-2-yl]methyl}-1H-1,2,3-triazole-4-carboxamide] came in with a concentration giving a half-maximal response (EC50) with A549 cells below 100 nM. Further, the IC50 in assay [1] was below 100 nM.
